Non-standard residues stand in square brackets, D forms with d. *: point of attachment. Phe(F5) = N[C@@H](Cc1c(F)c(F)c(F)c(F)c1F)C(=O)O; Phe(3,4-F2) = N[C@@H](Cc1ccc(F)c(F)c1)C(=O)O; Phe(2-Cl) = N[C@@H](Cc1ccccc1Cl)C(=O)O; Phe(3-F) = N[C@@H](Cc1cccc(F)c1)C(=O)O; Phe(4-F) = N[C@@H](Cc1ccc(F)cc1)C(=O)O; ACC = NC(=O)Cc1cc(=O)oc2cc(N*)ccc12; hArg = N=C(N)NCCCC[C@H](N)C(=O)O; ClZ = O=C(OCc1ccccc1Cl)*; Mob = COc1ccc(C*)cc1; Meb = Cc1ccc(C*)cc1; OBn = c1ccc(CO*)cc1; Bn = c1ccc(C*)cc1
What was measured:
Assay type in all cases: biochemical
cathepsin S = target: T1, cathepsin S (Homo sapiens, UniProt P25774); test: Kinetic parameters of ACC substrates with cathepsin S; settings: for kcat/KM Cath-S: Fig. 5B, pH 5.5, 37 °C, cathepsin S 5–20 nM, triplicate, SD below 15%
T1 construct: made in house
T1 sequence (P25774 115-331): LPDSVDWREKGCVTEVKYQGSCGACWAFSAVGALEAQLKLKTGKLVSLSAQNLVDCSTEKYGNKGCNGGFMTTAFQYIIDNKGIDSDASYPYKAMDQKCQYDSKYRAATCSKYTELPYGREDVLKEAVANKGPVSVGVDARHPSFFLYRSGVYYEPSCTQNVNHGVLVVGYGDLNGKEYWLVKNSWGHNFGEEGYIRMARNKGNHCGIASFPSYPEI
Method: (§1) All kinetic experiments were performed using fMax (Molecular Devices) and CLARIOStar (BMG LABTECH) spectrofluorimeters operating in kinetic mode using 96-well plates. ACC-labeled substrates were screened using 355 nm and 460 nm wavelengths (excitation and emission, respectively). […] The buffer was prepared at room temperature and the enzyme kinetic studies were performed at 37 °C.
(§2) Classic substrate velocity plots were analyzed according to Michaelis–Menten kinetics and a detailed protocol for the determination of kinetic parameters for ACC-tagged substrates is found elsewhere.[56] […] Experiments were repeated at least three times and results are presented as an average. The SDs were below 15%.

cathepsin B = target: T2, cathepsin B (Homo sapiens, UniProt P07858); test: Kinetic parameters of ACC substrates with cathepsin B; settings: for kcat/KM Cath-B: Fig. 5B, pH 5.5, 37 °C, cathepsin B 4–15 nM, triplicate, SD below 15%
T2 construct: made in house
Method: as §1, §2

cathepsin L = target: T3, cathepsin L (Homo sapiens, UniProt P07711); test: Kinetic parameters of ACC substrates with cathepsin L; settings: for kcat/KM Cath-L: Fig. 5B, pH 5.5, 37 °C, cathepsin L 0.1–0.5 nM, triplicate, SD below 15%
T3 construct: made in house
T3 sequence (P07711 114-333): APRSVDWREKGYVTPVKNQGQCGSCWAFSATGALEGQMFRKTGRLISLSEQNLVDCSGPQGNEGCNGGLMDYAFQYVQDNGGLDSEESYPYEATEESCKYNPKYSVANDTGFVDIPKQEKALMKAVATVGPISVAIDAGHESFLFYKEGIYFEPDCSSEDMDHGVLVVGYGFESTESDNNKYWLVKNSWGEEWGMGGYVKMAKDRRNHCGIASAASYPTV
Method: as §1, §2

cathepsin K = target: T4, cathepsin K (Homo sapiens, UniProt P43235); test: Kinetic parameters of ACC substrates with cathepsin K; settings: for kcat/KM Cath-K: Fig. 5B, pH 5.5, 37 °C, cathepsin K 5–20 nM, triplicate, SD below 15%
T4 construct: made in house
T4 sequence (P43235 115-329): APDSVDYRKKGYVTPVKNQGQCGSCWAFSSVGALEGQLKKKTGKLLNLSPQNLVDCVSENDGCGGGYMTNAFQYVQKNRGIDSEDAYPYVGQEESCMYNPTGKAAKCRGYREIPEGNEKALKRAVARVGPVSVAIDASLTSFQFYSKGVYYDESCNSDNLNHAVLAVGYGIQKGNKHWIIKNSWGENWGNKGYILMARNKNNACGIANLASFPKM
Method: as §1, §2

cathepsin V = target: T5, cathepsin V (Homo sapiens, UniProt O60911); test: Kinetic parameters of ACC substrates with cathepsin V; settings: for kcat/KM Cath-V: Fig. 5B, pH 5.5, 37 °C, cathepsin V 10–20 nM, triplicate, SD below 15%
T5 construct: made in house
T5 sequence (O60911 114-334): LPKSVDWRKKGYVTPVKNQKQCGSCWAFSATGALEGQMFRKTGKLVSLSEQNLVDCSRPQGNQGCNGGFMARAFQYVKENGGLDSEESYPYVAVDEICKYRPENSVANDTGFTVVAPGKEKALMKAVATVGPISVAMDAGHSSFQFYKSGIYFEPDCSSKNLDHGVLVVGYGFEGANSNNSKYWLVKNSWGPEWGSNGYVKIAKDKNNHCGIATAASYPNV
Method: as §1, §2

[1] = Table S7, four independent experiments, S.D. below 15%

Substance	kcat/KM Cath-S (cathepsin S)	kcat/KM Cath-B (cathepsin B)	kcat/KM Cath-L (cathepsin L)	kcat/KM Cath-K (cathepsin K)	kcat/KM Cath-V (cathepsin V)	other results
Ac-H[dV][Phe(2-Cl)]R-{ACC} (SMILES CC(=O)N[C@@H](Cc1c[nH]cn1)C(=O)N[C@@H](C(=O)N[C@@H](Cc1ccccc1Cl)C(=O)N[C@@H](CCCNC(=N)N)C(=O)Nc1ccc2c(CC(N)=O)cc(=O)oc2c1)C(C)C)	2,760 M^-1s^-1	1,360 M^-1s^-1	5,689,000 M^-1s^-1	13,000 M^-1s^-1	11,600 M^-1s^-1	
Ac-H[dV][Phe(3,4-F2)]R-{ACC} (SMILES CC(=O)N[C@@H](Cc1c[nH]cn1)C(=O)N[C@@H](C(=O)N[C@@H](Cc1ccc(F)c(F)c1)C(=O)N[C@@H](CCCNC(=N)N)C(=O)Nc1ccc2c(CC(N)=O)cc(=O)oc2c1)C(C)C)	580 M⁻¹ s⁻¹	2,520 M^-1s^-1	6,031,000 M^-1s^-1	1,010 M^-1s^-1	10,100 M^-1s^-1	
Ac-H[dV][Phe(3-F)]R-{ACC} (SMILES CC(=O)N[C@@H](Cc1c[nH]cn1)C(=O)N[C@@H](C(=O)N[C@@H](Cc1cccc(F)c1)C(=O)N[C@@H](CCCNC(=N)N)C(=O)Nc1ccc2c(CC(N)=O)cc(=O)oc2c1)C(C)C)	814 M⁻¹ s⁻¹	6,280 M^-1s^-1	8,432,000 M^-1s^-1	5,700 M^-1s^-1	12,600 M^-1s^-1	
Ac-H[dV][Phe(4-F)]R-{ACC} (SMILES CC(=O)N[C@@H](Cc1c[nH]cn1)C(=O)N[C@@H](C(=O)N[C@@H](Cc1ccc(F)cc1)C(=O)N[C@@H](CCCNC(=N)N)C(=O)Nc1ccc2c(CC(N)=O)cc(=O)oc2c1)C(C)C)	1,800 M^-1s^-1	3,100 M^-1s^-1	6,991,000 M^-1s^-1	2,580 M^-1s^-1	14,550 M^-1s^-1	
Ac-H[dV][Phe(F5)]C(Bn)-{ACC} (SMILES CC(=O)N[C@@H](Cc1c[nH]cn1)C(=O)N[C@@H](C(=O)N[C@@H](Cc1c(F)c(F)c(F)c(F)c1F)C(=O)N[C@@H](CSCc1ccccc1)C(=O)Nc1ccc2c(CC(N)=O)cc(=O)oc2c1)C(C)C)	< 10 M⁻¹ s⁻¹	1,370 M^-1s^-1	732,900 M^-1s^-1	190 M⁻¹ s⁻¹	1,250 M^-1s^-1	kcat/KM Cat S (cathepsin S; [1]): < 10 M⁻¹ s⁻¹; kcat Cat B (cathepsin B; [1]): 0.0115 s⁻¹; kcat/KM Cat B (cathepsin B; [1]): 1,370 M-1s-1; Km (cathepsin B; Table S7, four independent experiments, S.D. below 15%, read-out: KM Cat B): 8.19 µM; kcat Cat L (cathepsin L; [1]): 4.21 s⁻¹; kcat/KM Cat L (cathepsin L; [1]): 732,900 M-1s-1; Km (cathepsin L; Table S7, four independent experiments, S.D. below 15%, read-out: KM Cat L): 5.67 µM; kcat Cat K (cathepsin K; [1]): 0.00221 s⁻¹; kcat/KM Cat K (cathepsin K; [1]): 190 M⁻¹ s⁻¹; Km (cathepsin K; Table S7, four independent experiments, S.D. below 15%, read-out: KM Cat K): 11.5 µM; kcat Cat V (cathepsin V; [1]): 0.00971 s⁻¹; kcat/KM Cat V (cathepsin V; [1]): 1,250 M-1s-1; Km (cathepsin V; Table S7, four independent experiments, S.D. below 15%, read-out: KM Cat V): 7.76 µM
Ac-H[dV][Phe(F5)]C(Meb)-{ACC} (SMILES CC(=O)N[C@@H](Cc1c[nH]cn1)C(=O)N[C@@H](C(=O)N[C@@H](Cc1c(F)c(F)c(F)c(F)c1F)C(=O)N[C@@H](CSCc1ccc(C)cc1)C(=O)Nc1ccc2c(CC(N)=O)cc(=O)oc2c1)C(C)C)	< 10 M⁻¹ s⁻¹	2,290 M^-1s^-1	1,476,000 M^-1s^-1	< 10 M⁻¹ s⁻¹	1,740 M^-1s^-1	
Ac-H[dV][Phe(F5)]C(Mob)-{ACC} (SMILES COc1ccc(CSC[C@H](NC(=O)[C@H](Cc2c(F)c(F)c(F)c(F)c2F)NC(=O)[C@H](NC(=O)[C@H](Cc2c[nH]cn2)NC(C)=O)C(C)C)C(=O)Nc2ccc3c(CC(N)=O)cc(=O)oc3c2)cc1)	< 10 M⁻¹ s⁻¹	3,800 M^-1s^-1	2,135,000 M^-1s^-1	< 10 M⁻¹ s⁻¹	2,070 M^-1s^-1	
Ac-H[dV][Phe(F5)]E(OBn)-{ACC} (SMILES CC(=O)N[C@@H](Cc1c[nH]cn1)C(=O)N[C@@H](C(=O)N[C@@H](Cc1c(F)c(F)c(F)c(F)c1F)C(=O)N[C@@H](CCC(=O)OCc1ccccc1)C(=O)Nc1ccc2c(CC(N)=O)cc(=O)oc2c1)C(C)C)	1,110 M^-1s^-1	941 M⁻¹ s⁻¹	599,800 M^-1s^-1	626 M⁻¹ s⁻¹	710 M⁻¹ s⁻¹	
Ac-H[dV][Phe(F5)]K(ClZ)-{ACC} (SMILES CC(=O)N[C@@H](Cc1c[nH]cn1)C(=O)N[C@@H](C(=O)N[C@@H](Cc1c(F)c(F)c(F)c(F)c1F)C(=O)N[C@@H](CCCCNC(=O)OCc1ccccc1Cl)C(=O)Nc1ccc2c(CC(N)=O)cc(=O)oc2c1)C(C)C)	< 10 M⁻¹ s⁻¹	1,320 M^-1s^-1	686,700 M^-1s^-1	361 M⁻¹ s⁻¹	329 M⁻¹ s⁻¹	
Ac-H[dV][Phe(F5)]L-{ACC} (SMILES CC(=O)N[C@@H](Cc1c[nH]cn1)C(=O)N[C@@H](C(=O)N[C@@H](Cc1c(F)c(F)c(F)c(F)c1F)C(=O)N[C@@H](CC(C)C)C(=O)Nc1ccc2c(CC(N)=O)cc(=O)oc2c1)C(C)C)	912 M⁻¹ s⁻¹	684 M⁻¹ s⁻¹	135,600 M^-1s^-1	646 M⁻¹ s⁻¹	325 M⁻¹ s⁻¹	
Ac-H[dV][Phe(F5)][hArg]-{ACC} (SMILES CC(=O)N[C@@H](Cc1c[nH]cn1)C(=O)N[C@@H](C(=O)N[C@@H](Cc1c(F)c(F)c(F)c(F)c1F)C(=O)N[C@@H](CCCCNC(=N)N)C(=O)Nc1ccc2c(CC(N)=O)cc(=O)oc2c1)C(C)C)	< 10 M⁻¹ s⁻¹	187 M⁻¹ s⁻¹	317,900 M^-1s^-1	< 10 M⁻¹ s⁻¹	175 M⁻¹ s⁻¹	
Ac-His-DVal-Phe(F5)-Lys-ACC	< 10 M⁻¹ s⁻¹	< 10 M⁻¹ s⁻¹	231,000 M^-1s^-1	< 10 M⁻¹ s⁻¹	< 10 M⁻¹ s⁻¹	
Ac-His-DVal-Phe(F5)-Nle(OBzl)-ACC	508 M⁻¹ s⁻¹	2,500 M^-1s^-1	2,290,000 M^-1s^-1	906 M⁻¹ s⁻¹	3,820 M^-1s^-1	
Ac-R[dV][Phe(F5)]R-{ACC} (SMILES CC(=O)N[C@@H](CCCNC(=N)N)C(=O)N[C@@H](C(=O)N[C@@H](Cc1c(F)c(F)c(F)c(F)c1F)C(=O)N[C@@H](CCCNC(=N)N)C(=O)Nc1ccc2c(CC(N)=O)cc(=O)oc2c1)C(C)C)	< 10 M⁻¹ s⁻¹	101 M⁻¹ s⁻¹	387,300 M^-1s^-1	< 10 M⁻¹ s⁻¹	333 M⁻¹ s⁻¹	
Ac-[hArg][dV][Phe(F5)]R-{ACC} (SMILES CC(=O)N[C@@H](CCCCNC(=N)N)C(=O)N[C@@H](C(=O)N[C@@H](Cc1c(F)c(F)c(F)c(F)c1F)C(=O)N[C@@H](CCCNC(=N)N)C(=O)Nc1ccc2c(CC(N)=O)cc(=O)oc2c1)C(C)C)	< 10 M⁻¹ s⁻¹	242 M⁻¹ s⁻¹	454,800 M^-1s^-1	96 M⁻¹ s⁻¹	647 M⁻¹ s⁻¹	
